Data on three compounds can be found in patent US6586639B2, “Functional alcohol releasing substance” (Kao Corporation, priority 1999, dated 2003).

Each structure is given as a SMILES string. Several values for one entry are separate records, joined by “and”; a condition that tells them apart may be missing. Equal entries are not always repeated.

In the experiment the test system is Aspergillus niger. The experiment is described as follows: Fungal resistance test on coated test cloth. The experiment is classed as cell-based. Details: key to Judgment (fungal resistance): NG: Completely no fungal growth; TG: Growth on less than 10% of the surface area; SG: Growth on 10% or more and less than 30% of the surface area; MG: Growth on 30% or more and less than 60% of the surface area; HG: Growth on 60% or more of the surface area. As to conditions: cultured 29±1° C. 7 days; for Growth rate (%) Average: average of three test cloths; for Growth rate (%): single test cloths (three per solution), 0.3 ml ethanol solution (A 1.17%, B 1.00%, C 0.300%) coated, dried 48 hours. As to the method:
Each of betaine ester (1), betaine ester (3) and geraniol was dissolved in 99.5% ethanol to prepare solutions having the following concentrations and used as test solutions (A), (B) and (C), respectively.
Test solution (A): betaine ester (1), 1.17% in concentration
Test solution (B): betaine ester (3), 1.00% in concentration
Test solution (C): geraniol, 0.300% in concentration
(1) Preparation of test cloth
A 0.3 ml portion of each test solution or 0.3 ml of 99.5% ethanol used as a control was separately coated on a cotton-polyester mixture test cloth cut into a disc of 25 mm in diameter and then the cloth was dried at 25° C. under 30% relative humidity for 48 hours to be used as a test cloth. Three sheets of the test cloth were prepared for one test solution and used in the test.
(2) Fungal resistance test
A plate agar medium having the following composition was prepared to a thickness of 15 mm in a Petri dish of 150 mm in diameter. The medium was used by sterilizing it in advance at 120° C. for 20 minutes in an autoclave.
Pure water: 1,500 ml, glucose: 15 g, agar: 23 g, inorganic salts stock solution (NH4NO3 90 g, KH2PO4 60 g, MgSO4 7H2O, 15 g, KCl 15 g, pure water 1,000 g): 50 ml
Each test cloth was put on the above medium, and about 1 ml of a spore suspension prepared by dispersing spores of a fungus (Aspergillus niger) in sterile water (containing 0.005% sodium dioctylsulfosuccinate) was sprayed. This was cultured at 29±1° C. for 7 days to carry out comparative test of fungal resistance by inspecting growing condition of the fungus on the periphery or surface of the sample, and the results were evaluated based on the following five step criteria by observing growth condition of the fungus on the test cloth surface with the naked eye and under a microscope. That is, when the fungus is not grown on the surface of a test cloth and also, when the test cloth is peeled from the medium, the fungus is not grown on the backside but forming an inhibition zone, the result is judged as excellent in fungal resistance (NG).
Completely no fungal growth: NG (no growth)
Growth on less than 10% of the surface area: TG (trace of growth)
Growth on 10% or more and less than 30% of the surface area: SG (slight growth)
Growth on 30% or more and less than 60% of the surface area: MG (moderate growth)
Growth on 60% or more of the surface area: HG (heavy growth)

`CCCCCCCCCCCCCCCCCC(=O)NCCC[N+](C)(C)CC(=O)OC/C=C(\C)CCC=C(C)C.[Cl-]` [betaine ester (1), N,N-dimethyl-N-geranyloxycarbonylmethyl-N-(3-(octadecanoylamino)propyl)ammonium chloride]: the “Growth rate (%) Average” value turned out to be 0%, the “Judgment (fungal resistance)” value is “NG” and the “Growth rate (%)” value amounted to 0%.

With `CCCCCCCCCCCC(=O)NCCC[N+](C)(C)CC(=O)OC/C=C(\C)CCC=C(C)C.[Cl-]` [betaine ester (3), N,N-dimethyl-N-geranyloxycarbonylmethyl-N-(3-(dodecanoylamino)propyl)ammonium chloride], the “Growth rate (%) Average” value stood at 0%, the “Judgment (fungal resistance)” value is reported as “NG” and the “Growth rate (%)” value is 0%.

On to `CC(C)=CCC/C(C)=C/CO` [geraniol, reference compound], for which the “Growth rate (%) Average” value turned out to be 36%; the “Judgment (fungal resistance)” value was “MG (Growth on 30% or more and less than 60% of the surface area)”. For the same compound, under “listed as (C)”, the “Growth rate (%)” value was 35% and 32% and 40%.
